Source: patent US11447471B2, “α,β-unsaturated amide compound” (KYOWA KIRIN CO., LTD., priority 2017, dated 2022)

What was measured:
[1] = tested on: NCI-H226 cells; test: Cell growth inhibitory effect on human mesothelioma cell line (cell counting kit 8, 6 days); assay type: cell-based; settings: NCI-H226, 144 h
Source text: (§1) NCI-H226 cells, a human mesothelioma cell line (ATCC, CRL-5826), NCI-H322 cells, a human lung cancer cell line (the European Collection of Authenticated Cell Cultures, 95111734), OUTOKO cells, a human ovarian cancer cell line (JCRB cell bank, KRB1048) and […] were each subcultured by keeping the cell density under 80% in a RPMI1640 culture medium with 10% fetal bovine serum (FBS). NCI-H226 cells, NCI-H322 cells and SSP-25 cells were each suspended in the RPMI1640 culture medium mentioned above, and plated to a 96-well flat-bottom plate at 500 cells/well in each well, and incubated at 37° C. in an incubator with 5% CO2 for one day. After the incubation, the evaluation of cell growth inhibitory activity was started. OVTOKO cells were suspended in the RPMI1640 culture medium mentioned above, and plated to a 96-well flat-bottom plate at 250 cells/well in each well, and incubated it at 37° C. in an incubator with 5% CO2 for one day. After the incubation, the evaluation of the cell growth inhibitory activity was started. The next day, a test compound was serially diluted to 5 times of its final concentration in the RPM11640 culture medium mentioned above, and the diluted solution was added to each well. In this case, the final concentration of DMSO in each well was adjusted to 0.1%. After the test compound was added, cells were incubated at 37° C. in an incubator with 5% CO2 for 6 days. At the addition of the test compound and 6 days after the addition, the cell counting measurement was performed using a cell counting kit 8 (made by DOJINDO) according to a protocol equivalent to DOJINDO's recommendation. A reagent contained in the kit was added to each plate and color reaction was performed for 2 or 3 hours at 37° C. in an incubator with 5% CO2. After the reaction, an absorbance at wavelength of 450 nm was measured using a microplate reader. A growth inhibition rate was calculated according to the following formula, from which the concentration of a test compound at which cell growth was inhibited by 50% (GI50 value) was determined.

[2] = tested on: OVTOKO cells; test: Cell growth inhibitory effect on human ovarian cancer cell line (cell counting kit 8, 6 days); assay type: cell-based; settings: 144 h, 6 days incubation
Source text: as §1

SMILES | GI50 [1] [nM] | GI50 [2] [nM]
O=C(/C=C/C(F)(F)F)NCc1ccc(Oc2ccc(Cl)cc2)c2ncccc12 [Compound 135, (E)-N-[{8-(4-Chlorophenoxy)quinolin-5-yl}methyl]-4,4,4-trifluoro-2-butenamide] | 100 to 1000 | 
C=CC(=O)NCc1ccc(Oc2cnc(C(F)(F)F)nc2)c2ncccc12 [Compound 196, N-{(8-[{2-(Trifluoromethyl)pyrimidin-5-yl}oxy]quinolin-5-yl)methyl}acrylamide] | 100 to 1000 | 
C=CC(=O)Nc1cncc(Oc2ccc(OC(C)C)nc2)c1 [Compound 110, N-[5-{(6-Isopropoxypyridin-3-yl)oxy}pyridin-3-yl]acrylamide] | 100 to 1000 | 
C=CC(=O)NCc1nc2c(Oc3ccc(C(F)(F)F)cc3)cccc2o1 [Compound 254, N-([4-{4-(Trifluoromethyl)phenoxy}benzo[d]oxazol-2-yl]methyl)acrylamide] | 100 to 1000 | 
C=CC(=O)N[C@@H]1CC[C@H](Oc2ccccc2)c2ncccc21 (relative stereo) [Compound 67, cis-N-(8-Phenoxy-5,6,7,8-tetrahydroquinolin-5-yl)acrylamide] | 100 to 1000 | 
C=CC(=O)N[C@@H]1CC[C@H](Oc2ccc(Cl)c(Cl)c2)c2nc(Cl)ccc21 (relative stereo) [Compound 178, cis-N-{2-Chloro-8-(3,4-dichlorophenoxy)-5,6,7,8-tetrahydroquinolin-5-yl}acrylamide] | < 100 | 
[H]/C=C/C(=O)NC1CCOc2c1ccc(Oc1ccc(C(F)(F)F)cc1)c2F (racemic) [Compound 31, N-[8-Fluoro-7-{4-(trifluoromethyl)phenoxy}chroman-4-yl]acrylamide] | < 100 | ≤ 3000
C=CC(=O)NCc1nc2cc(Oc3ccc(C(F)(F)F)cc3)ccc2o1 [Compound 255, N-([5-{4-(Trifluoromethyl)phenoxy}benzo[d]oxazol-2-yl]methyl)acrylamide] | 100 to 1000 | 
[H]/C=C/C(=O)NC1CCOc2c1ccc(Oc1ccc(C(F)(F)F)cc1)c2OC (racemic) [Compound 33, N-[8-Methoxy-7-{4-(trifluoromethyl)phenoxy}chroman-4-yl]acrylamide] | < 100 | ≤ 3000
C=CC(=O)NC1CC[C@@H](Oc2ccc(Cl)cc2)c2nc(OC)ccc21 (stereo in doubt) [Compound 81, trans-N-{8-(4-Chlorophenoxy)-2-methoxy-5,6,7,8-tetrahydroquinolin-5-yl}acrylamide] | 100 to 1000 | 
C=CC(=O)NCc1ccc(Oc2ccc(C(F)(F)F)cc2)c2cccnc12 [Compound 216, N-([5-{4-(Trifluoromethyl)phenoxy}quinolin-8-yl]methyl)acrylamide] |  | ≤ 3000
C=CC(=O)Nc1cncc(Oc2ccc(Cl)c(Cl)c2)c1 [Compound 105, N-{5-(3,4-Dichlorophenoxy)pyridin-3-yl}acrylamide] |  | ≤ 3000
C=CC(=O)NCc1ccc(CCc2ccc(C(F)(F)F)cc2)c2nc(C)oc12 [Compound 267, N-([2-Methyl-4-{4-(trifluoromethyl)phenethyl}benzo[d]oxazol-7-yl]methyl)acrylamide] | 100 to 1000 | ≤ 3000
C=CC(=O)NC1COc2c(cccc2Oc2cnc(C(F)(F)F)nc2)C1 (centres unmarked) [Compound 155, N-(8-[{2-(Trifluoromethyl)pyrimidin-5-yl}oxy]chroman-3-yl)acrylamide] |  | ≤ 3000
C=CC(=O)Nc1ccc(Oc2cccc(Cl)c2)c2ncccc12 [Compound 114, N-{8-(3-Chlorophenoxy)quinolin-5-yl}acrylamide] |  | ≤ 3000
C=CC(=O)NC1CCCOc2cc(Oc3ccc(C(F)(F)F)cc3)ccc21 (centres unmarked) [Compound 261, N-[8-{4-(Trifluoromethyl)phenoxy}-2,3,4,5-tetrahydrobenzo[b]oxepin-5-yl]acrylamide] | 100 to 1000 | 
C=CC(=O)NCc1ccc(Oc2ccc(C(F)(F)F)nc2)c2ncc(C)cc12 [Compound 200, N-{(3-Methyl-8-[{6-(trifluoromethyl)pyridin-3-yl}oxy]quinolin-5-yl)methyl}acrylamide] |  | ≤ 3000
C=CC(=O)NCc1cnc(Oc2ccc(C(F)(F)F)cc2)c2ccccc12 [Compound 222, N-([1-{4-(Trifluoromethyl)phenoxy}isoquinolin-4-yl]methyl)acrylamide] |  | ≤ 3000
C=CC(=O)NC1COc2cc(Oc3ccc(Cl)cc3)ccc2C1 (centres unmarked) [Compound 37, N-{7-(4-Chlorophenoxy)chroman-3-yl}acrylamide] |  | ≤ 3000

SMILES | GI50 [1] [nM] | GI50 [2] [nM]
[H]/C=C/C(=O)NCc1ccc(Oc2cccc(C(F)(F)F)c2)c2ncccc12 [Compound 137, N-([8-{3-(Trifluoromethyl)phenoxy}quinolin-5-yl]methyl)acrylamide] |  | ≤ 3000
[H]/C=C/C(=O)NCc1cc(Oc2ccnc(Cl)c2)nc2ccccc12 [Compound 150, N-([2-{(2-Chloropyridin-4-yl)oxy}quinolin-4-yl]methyl)acrylamide] |  | ≤ 3000
C=CC(=O)NCc1ccc(Oc2ccc(C(F)(F)F)cc2)c2nccc(C)c12 [Compound 201, N-([4-Methyl-8-{4-(trifluoromethyl)phenoxy}quinolin-5-yl]methyl)acrylamide] |  | ≤ 3000
C=CC(=O)NC1CCOc2c1ccc(Oc1ccc(F)c(F)c1)c2OC (centres unmarked) [Compound 164, N-{7-(3,4-Difluorophenoxy)-8-methoxychroman-4-yl}acrylamide] |  | ≤ 3000
[H]/C=C/C(=O)NCc1ccc(Oc2ccc(Cl)cc2)c2ncccc12 [Compound 134, N-[{8-(4-Chlorophenoxy)quinolin-5-yl}methyl]acrylamide] |  | ≤ 3000
C=CC(=O)NC1COc2c(cccc2Oc2ccc(Cl)cc2)C1 (centres unmarked) [Compound 59, N-{8-(4-chlorophenoxy)chroman-3-yl}acrylamide] |  | ≤ 3000
C=CC(=O)N[C@@H]1CC[C@H](Oc2ccc(C(F)(F)F)cc2)c2ncc(Cl)cc21 (relative stereo) [Compound 190, N-((5R*,8S*)-3-Chloro-8-(4-(trifluoromethyl)phenoxy)-5,6,7,8-tetrahydroquinolin-5-yl)acrylamide] |  | ≤ 3000
C=CC(=O)NCc1ccc(Nc2ccc(C(F)(F)F)cc2)c2ncccc12 [Compound 203, N-{(8-[{4-(Trifluoromethyl)phenyl}amino]quinolin-5-yl)methyl}acrylamide] |  | ≤ 3000
C=CC(=O)Nc1cncc(Oc2ccc(C(F)(F)F)cn2)c1 [Compound 109, N-(5-[{5-(Trifluoromethyl)pyridin-2-yl}oxy]pyridin-3-yl)acrylamide] |  | ≤ 3000
C=CC(=O)NCc1cnc(Oc2ccc(Cl)cc2)c2ncccc12 [Compound 227, N-[{8-(4-Chlorophenoxy)-1,7-naphthyridin-5-yl}methyl]acrylamide] |  | ≤ 3000
C=CC(=O)N[C@@H]1c2ccc(Oc3ccc(C(F)(F)F)cc3)cc2OC[C@H]1F (relative stereo) [Compound 22, trans-N-[3-Fluoro-7-{4-(trifluoromethyl)phenoxy}chroman-4-yl]acrylamide] |  | ≤ 3000
C=CC(=O)Nc1cnc(Oc2ccc(Cl)cc2)c2ncccc12 [Compound 226, N-{8-(4-chlorophenoxy)-1,7-naphthyridin-5-yl}acrylamide] |  | ≤ 3000
C=CC(=O)N[C@@H]1CC[C@H](Oc2ccc(C(F)(F)F)cc2)c2nc(CC)ccc21 (relative stereo) [Compound 186, cis-N-[2-ethyl-8-{4-(trifluoromethyl)phenoxy}-5,6,7,8-tetrahydroquinolin-5-yl]acrylamide] | 100 to 1000 | 
C=CC(=O)NC1COc2c(cccc2Oc2ccc(C(F)(F)F)nc2)C1 (centres unmarked) [Compound 229, N-(8-[{6-(Trifluoromethyl)pyridin-3-yl}oxy]chroman-3-yl)acrylamide] |  | ≤ 3000
C=CC(=O)Nc1cncc(Oc2cncc(C(F)(F)F)c2)c1 [Compound 107, N-(5-[{5-(Trifluoromethyl)pyridin-3-yl}oxy]pyridin-3-yl)acrylamide] |  | ≤ 3000
C=CC(=O)N[C@@H]1CC[C@H](Oc2cnc(Cl)c(Cl)c2)c2nc(Cl)ccc21 (relative stereo) [Compound 181, cis-N-[2-Chloro-8-{(5,6-dichloropyridin-3-yl)oxy}-5,6,7,8-tetrahydroquinolin-5-yl]acrylamide] | 100 to 1000 | 
[H]/C=C/C(=O)NC1CCOc2c1ccc(Oc1ccc(Cl)cc1)c2C (centres unmarked) [Compound 27, N-{7-(4-Chlorophenoxy)-8-methylchroman-4-yl}acrylamide] |  | ≤ 3000
C=CC(=O)Nc1cncc(Oc2ccc(C(F)(F)F)cc2)c1 [Compound 96, N-[5-{4-(Trifluoromethyl)phenoxy}pyridin-3-yl]acrylamide] |  | ≤ 3000
C=CC(=O)NCc1ccc(Oc2ccc(C(F)(F)F)cc2)c2ncc(C)cc12 [Compound 199, N-([3-Methyl-8-{4-(trifluoromethyl)phenoxy}quinolin-5-yl]methyl)acrylamide] |  | ≤ 3000
